Patent US20050112573A1, “Method of detecting toxic substance” (priority 2001, published 2005)

Tested on: yeast genes (level of expressed mRNA)
Assay: DNA chip analysis of expressed mRNA of yeast genes after 2 h culture with a toxic chemical substance
Format: cell-based, Saccharomyces cerevisiae S288C
Conditions: for The level of expressed mRNA in the presence of chemical substance/ (ratio to absence): transport facilitation protein gene; for The level of expressed mRNA in the presence of chemical substance/: ratio to no chemical; for The level of expressed mRNA in the presence of chemical substance/ (ratio to absence of chemical substance): stress protein genes, DNA chip
Procedure, shortened: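 Values are treated-to-control fluorescence ratios from a whole-yeast-genome DNA chip (65° C, over 12 h hybridization) using Cy3/Cy5-labelled cDNA from mRNA. Log-phase S288C cells in YPD at 25° C were exposed 2 h to a toxicant at sublethal, growth-inhibiting concentration.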

sodium dodecylbenzosulfonate [(17)]
The level of expressed mRNA in the presence of chemical substance/ (ratio to absence) (yeast gene YKL188C): 1.1 | The level of expressed mRNA in the presence of chemical substance/ (ratio to absence) (yeast gene YKL192C): 1.0 | The level of expressed mRNA in the presence of chemical substance/The level of expressed mRNA in the absence of chemical substance (yeast gene YKL193C): 1.2 | The level of expressed mRNA in the presence of chemical substance/ (ratio to absence) (yeast gene YKL209C): 1.1 | The level of expressed mRNA in the presence of chemical substance/ (ratio to absence) (yeast gene YKL217W): 1.7 | The level of expressed mRNA in the presence of chemical substance/in the absence of chemical substance (yeast gene YKL218C): 2.5 | The level of expressed mRNA in the presence of chemical substance/ (ratio to absence) (yeast gene YKL221W): 0.8 | The level of expressed mRNA in the presence of chemical substance/ (yeast gene YKR007W): 0.8 | The level of expressed mRNA in the presence of chemical substance/ (in its absence), gene YKR009C (yeast gene YKR009C, ratio of DNA chip fluorescence intensity to that without chemical substance): 1.9 | The level of expressed mRNA in the presence of chemical substance/ (yeast gene YKR020W): 1.3 | The level of expressed mRNA in the presence of chemical substance/ (in its absence), gene YKR034W (yeast gene YKR034W, ratio of DNA chip fluorescence intensity to that without chemical substance): 0.8 | The level of expressed mRNA in the presence of chemical substance/ (ratio to absence) (yeast gene YKR039W): 0.9 | The level of expressed mRNA in the presence of chemical substance/ (ratio to absence of chemical substance) (yeast gene YKR053C): 2.8 | The level of expressed mRNA in the presence of chemical substance/ in its absence, gene YKR058W (yeast gene YKR058W, energy system protein genes, 2 h culture with the chemical, ratio to control without chemical): 0.8 | The level of expressed mRNA in the presence of chemical substance/ (yeast gene YKR071C): 0.9 | The level of expressed mRNA in the presence of chemical substance/in the absence of chemical substance (yeast gene YKR097W): 1.1 | The level of expressed mRNA in the presence of chemical substance/ (ratio to absence) (yeast gene YKR105C): 0.8 | The level of expressed mRNA in the presence of chemical substance/ (ratio to absence) (yeast gene YKR106W): 0.9 | The level of expressed mRNA in the presence of chemical substance/ (yeast gene YLL025W): 1.0 | The level of expressed mRNA in the presence of chemical substance/ (ratio to absence) (yeast gene YLL028W): 1.2 | The level of expressed mRNA in the presence of chemical substance/ (ratio to absence) (yeast gene YLL055W): 1.1 | The level of expressed mRNA in the presence of chemical substance/ (ratio to absence) (yeast gene YLL061W): 0.6 | The level of expressed mRNA in the presence of chemical substance/ (yeast gene YLL062C): 0.9 | The level of expressed mRNA in the presence of chemical substance/ (in its absence), gene YLR006C (yeast gene YLR006C, ratio of DNA chip fluorescence intensity to that without chemical substance): 1.6 | The level of expressed mRNA in the presence of chemical substance/ (ratio to absence of chemical substance) (yeast gene YLR006C): 1.6 | The level of expressed mRNA in the presence of chemical substance/in the absence of chemical substance (yeast gene YLR027C): 1.3 | The level of expressed mRNA in the presence of chemical substance/ (ratio to absence) (yeast gene YLR092W): 1.0 | The level of expressed mRNA in the presence of chemical substance/ (yeast gene YLR108C): 1.0 | The level of expressed mRNA in the presence of chemical substance/The level of expressed mRNA in the absence of chemical substance (yeast gene YLR120C): 3.5 | The level of expressed mRNA in the presence of chemical substance/in the absence of chemical substance (yeast gene YLR133W): 1.1 | The level of expressed mRNA in the presence of chemical substance/The level of expressed mRNA in the absence of chemical substance (yeast gene YLR136C): 1.8 | The level of expressed mRNA in the presence of chemical substance/ (yeast gene YLR145W): 1.0 | The level of expressed mRNA in the presence of chemical substance/in the absence of chemical substance (yeast gene YLR155C): 1.4 | The level of expressed mRNA in the presence of chemical substance/ (yeast gene YLR156W): 1.1 | The level of expressed mRNA in the presence of chemical substance/in the absence of chemical substance (yeast gene YLR158C): 1.4 | The level of expressed mRNA in the presence of chemical substance/The level of expressed mRNA in the absence of chemical substance (yeast gene YLR178C): 2.0 | The level of expressed mRNA in the presence of chemical substance/in the absence of chemical substance (yeast gene YLR195C): 0.9 | The level of expressed mRNA in the presence of chemical substance/ (yeast gene YLR247C): 1.2 | The level of expressed mRNA in the presence of chemical substance/The level of expressed mRNA in the absence of chemical substance (yeast gene YLR250W): 1.4 | The level of expressed mRNA in the presence of chemical substance/ (yeast gene YLR267W): 1.2 | The level of expressed mRNA in the presence of chemical substance/ (yeast gene YLR280C): 1.2 | The level of expressed mRNA in the presence of chemical substance/ (yeast gene YLR290C): 1.3 | The level of expressed mRNA in the presence of chemical substance/ in its absence, gene YLR295C (yeast gene YLR295C, energy system protein genes, 2 h culture with the chemical, ratio to control without chemical): 0.9 | The level of expressed mRNA in the presence of chemical substance/ (ratio to absence), gene YLR295C (yeast gene YLR295C, mitochondria-located protein genes, 2 h culture with chemical): 0.9 | The level of expressed mRNA in the presence of chemical substance/in the absence of chemical substance (yeast gene YLR303W): 1.5 | The level of expressed mRNA in the presence of chemical substance/ (yeast gene YLR311C): 1.3 | The level of expressed mRNA in the presence of chemical substance/The level of expressed mRNA in the absence of chemical substance (yeast gene YLR327C): 3.3 | The level of expressed mRNA in the presence of chemical substance/in the absence of chemical substance (yeast gene YLR345W): 1.2 | The level of expressed mRNA in the presence of chemical substance/ (ratio to absence) (yeast gene YLR348C): 1.1 | The level of expressed mRNA in the presence of chemical substance/ (in its absence), gene YLR351C (yeast gene YLR351C, ratio of DNA chip fluorescence intensity to that without chemical substance): 1.3 | The level of expressed mRNA in the presence of chemical substance/The level of expressed mRNA in the absence of chemical substance (yeast gene YLR356W): 1.1 | The level of expressed mRNA in the presence of chemical substance/The level of expressed mRNA in the absence of chemical substance (yeast gene YLR362W): 1.2 | The level of expressed mRNA in the presence of chemical substance/ (in its absence), gene YLR375W (yeast gene YLR375W, ratio of DNA chip fluorescence intensity to that without chemical substance): 1.0 | The level of expressed mRNA in the presence of chemical substance/ (ratio to absence) (yeast gene YLR378C): 0.9 | The level of expressed mRNA in the presence of chemical substance/The level of expressed mRNA in the absence of chemical substance (yeast gene YLR391W): 1.4 | The level of expressed mRNA in the presence of chemical substance/The level of expressed mRNA in the absence of chemical substance (yeast gene YLR429W): 1.0 | The level of expressed mRNA in the presence of chemical substance/in the absence of chemical substance (yeast gene YML004C): 1.5 | The level of expressed mRNA in the presence of chemical substance/ (yeast gene YML068W): 1.0 | The level of expressed mRNA in the presence of chemical substance/ (ratio to absence) (yeast gene YML116W): 1.0 | The level of expressed mRNA in the presence of chemical substance/ in its absence, gene YML129C (yeast gene YML129C, energy system protein genes, 2 h culture with the chemical, ratio to control without chemical): 1.3 | The level of expressed mRNA in the presence of chemical substance/ (ratio to absence), gene YML129C (yeast gene YML129C, mitochondria-located protein genes, 2 h culture with chemical): 1.3 | The level of expressed mRNA in the presence of chemical substance/in the absence of chemical substance (yeast gene YML131W): 2.5 | The level of expressed mRNA in the presence of chemical substance/The level of expressed mRNA in the absence of chemical substance (yeast gene YMR004W): 0.9 | The level of expressed mRNA in the presence of chemical substance/ (ratio to absence), gene YMR023C (yeast gene YMR023C, mitochondria-located protein genes, 2 h culture with chemical): 1.1 | The level of expressed mRNA in the presence of chemical substance/ (yeast gene YMR034C): 1.8 | The level of expressed mRNA in the presence of chemical substance/ (yeast gene YMR041C): 0.8 | The level of expressed mRNA in the presence of chemical substance/ (ratio to absence) (yeast gene YMR056C): 1.0 | The level of expressed mRNA in the presence of chemical substance/ (ratio to absence) (yeast gene YMR058W): 0.6 | The level of expressed mRNA in the presence of chemical substance/The level of expressed mRNA in the absence of chemical substance (yeast gene YMR094W): 1.0 | The level of expressed mRNA in the presence of chemical substance/The level of expressed mRNA in the absence of chemical substance (yeast gene YMR104C): 2.8 | The level of expressed mRNA in the presence of chemical substance/ (yeast gene YMR178W): 1.1 | The level of expressed mRNA in the presence of chemical substance/ (ratio to absence of chemical substance) (yeast gene YMR186W): 0.7 | The level of expressed mRNA in the presence of chemical substance/ (ratio to absence) (yeast gene YMR203W): 0.8 | The level of expressed mRNA in the presence of chemical substance/The level of expressed mRNA in the absence of chemical substance (yeast gene YMR219W): 1.1 | The level of expressed mRNA in the presence of chemical substance/The level of expressed mRNA in the absence of chemical substance (yeast gene YMR226C): 1.6 | The level of expressed mRNA in the presence of chemical substance/ (yeast gene YMR253C): 1.2 | The level of expressed mRNA in the presence of chemical substance/ in its absence, gene YMR267W (yeast gene YMR267W, energy system protein genes, 2 h culture with the chemical, ratio to control without chemical): 0.9 | The level of expressed mRNA in the presence of chemical substance/ (ratio to absence), gene YMR267W (yeast gene YMR267W, mitochondria-located protein genes, 2 h culture with chemical): 0.9 | The level of expressed mRNA in the presence of chemical substance/ in its absence, gene YMR267W (yeast gene YMR267W, ratio of DNA chip fluorescence intensity to that without chemical substance): 0.9 | The level of expressed mRNA in the presence of chemical substance/The level of expressed mRNA in the absence of chemical substance (yeast gene YMR275C): 0.9 | The level of expressed mRNA in the presence of chemical substance/The level of expressed mRNA in the absence of chemical substance (yeast gene YMR276W): 1.2 | The level of expressed mRNA in the presence of chemical substance/ (in its absence), gene YMR278W (yeast gene YMR278W, ratio of DNA chip fluorescence intensity to that without chemical substance): 1.0 | The level of expressed mRNA in the presence of chemical substance/ (in its absence), gene YMR293C (yeast gene YMR293C, ratio of DNA chip fluorescence intensity to that without chemical substance): 0.8 | The level of expressed mRNA in the presence of chemical substance/The level of expressed mRNA in the absence of chemical substance (yeast gene YMR314W): 1.3 | The level of expressed mRNA in the presence of chemical substance/The level of expressed mRNA in the absence of chemical substance (yeast gene YNL006W): 1.0 | The level of expressed mRNA in the presence of chemical substance/The level of expressed mRNA in the absence of chemical substance (yeast gene YNL007C): 1.1 | The level of expressed mRNA in the presence of chemical substance/ (in its absence), gene YNL025C (yeast gene YNL025C, ratio of DNA chip fluorescence intensity to that without chemical substance): 0.7 | The level of expressed mRNA in the presence of chemical substance/ (ratio to absence) (yeast gene YNL055C): 1.2 | The level of expressed mRNA in the presence of chemical substance/ (ratio to absence of chemical substance) (yeast gene YNL064C): 0.7 | The level of expressed mRNA in the presence of chemical substance/in the absence of chemical substance (yeast gene YNL071W): 1.0 | The level of expressed mRNA in the presence of chemical substance/ (ratio to absence), gene YNL073W (yeast gene YNL073W, mitochondria-located protein genes, 2 h culture with chemical): 0.8 | The level of expressed mRNA in the presence of chemical substance/The level of expressed mRNA in the absence of chemical substance (yeast gene YNL093W): 3.0 | The level of expressed mRNA in the presence of chemical substance/ (yeast gene YNL122C): 1.0 | The level of expressed mRNA in the presence of chemical substance/ (ratio to absence) (yeast gene YNL142W): 1.0 | The level of expressed mRNA in the presence of chemical substance/ (in its absence), gene YNL192W (yeast gene YNL192W, ratio of DNA chip fluorescence intensity to that without chemical substance): 2.3
